Reference: patent US8785482B2, “Cyclohexene benzotriazole derivatives” (Merck Sharp & Dohme Corp., priority 2011, dated 2014)

target: T1, recombinant human mGluR2 (Homo sapiens, UniProt Q14416); assay: FLIPR Ca2+ mobilization assay, potentiation of glutamate response; assay type: cell-based; settings: CHO dhfr- cells expressing human mGluR2 and Gα16, EC20 glutamate (900 nM)
T1 construct: expressed in transfected cells
Protocol: Potencies are determined as follows. The compounds of the present invention may be tested in a fluorescence laser imaging plate reader (FLIPR) based assay. This assay is a common functional assay to monitor Ca^2+ mobilization in whole cells expressing recombinant receptor coupled with a promiscuous G-protein. CHO dhfr-cells stably expressing recombinant human mGluR2 and Gα16 loaded with Fluo-4 AM (Invitrogen, Carlsbad Calif.) are treated with varying concentrations of compounds and the Ca^2+ response is monitored on a FLIPR384 (Molecular Devices, Sunnydale Calif.) for agonist activity. The potentiation response is monitored after a subsequent addition of an EC20 concentration of glutamate (900 nM). The maximum calcium response at each concentration of compound for agonism or potentiation are plotted as dose responses curves fitted with a four parameters logistic equation giving EC50 and Hill coefficient using the iterative non linear curve fitting software program.
Such results are indicative of the intrinsic activity of the compounds in use as potentiators of mGluR2 receptor activity.

T1 sequence (Q14416 19-872): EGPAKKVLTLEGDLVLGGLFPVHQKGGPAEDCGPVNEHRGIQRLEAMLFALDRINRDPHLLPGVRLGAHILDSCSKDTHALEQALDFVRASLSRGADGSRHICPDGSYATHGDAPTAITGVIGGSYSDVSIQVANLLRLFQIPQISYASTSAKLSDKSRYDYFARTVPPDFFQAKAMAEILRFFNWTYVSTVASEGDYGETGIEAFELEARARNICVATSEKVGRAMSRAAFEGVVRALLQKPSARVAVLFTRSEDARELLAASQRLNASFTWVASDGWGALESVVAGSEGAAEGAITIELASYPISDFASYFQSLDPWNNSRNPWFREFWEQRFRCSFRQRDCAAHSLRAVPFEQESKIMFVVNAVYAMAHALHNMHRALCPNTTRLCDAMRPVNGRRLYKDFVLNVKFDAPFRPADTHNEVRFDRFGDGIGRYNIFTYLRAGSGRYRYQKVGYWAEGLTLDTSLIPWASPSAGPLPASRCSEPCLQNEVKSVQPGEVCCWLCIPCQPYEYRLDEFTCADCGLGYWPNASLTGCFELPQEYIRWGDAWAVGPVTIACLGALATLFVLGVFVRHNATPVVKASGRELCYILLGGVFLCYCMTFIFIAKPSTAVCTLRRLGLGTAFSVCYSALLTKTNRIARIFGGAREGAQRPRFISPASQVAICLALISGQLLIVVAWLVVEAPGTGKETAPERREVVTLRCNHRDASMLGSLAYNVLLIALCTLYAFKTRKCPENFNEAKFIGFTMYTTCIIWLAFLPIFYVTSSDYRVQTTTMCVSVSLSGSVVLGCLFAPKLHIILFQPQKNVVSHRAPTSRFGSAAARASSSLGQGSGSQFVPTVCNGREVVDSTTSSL

EC50 [nM] | SMILES
31 | COC(=O)C1CC=C(c2ccc3c(nnn3CC3CC3)c2C(F)(F)F)CC1 (centres unmarked) [Example 7, Methyl 4-[1-(cyclopropylmethyl)-4-(trifluoromethyl)-1H-benzotriazol-5-yl]cyclohex-3-ene-1-carboxylate]
408 | OC1CC=C(c2ccc3c(nnn3CC3CC3)c2Cl)CC1 (centres unmarked) [Example 5, 4-[4-chloro-1-(cyclopropylmethyl)-1H-benzotriazol-5-yl]cyclohex-3-en-1-ol]
373 | COC(=O)C1CC=C(c2ccc3c(nnn3CC3CC3)c2Cl)CC1 (centres unmarked) [Example 1, Methyl 4-[4-chloro-1-(cyclopropylmethyl)-1H-benzotriazol-5-yl]cyclohex-3-ene-1-carboxylate]
77 | OCC1CC=C(c2ccc3c(nnn3CC3CC3)c2Cl)CC1 (centres unmarked) [Example 2, {4-[4-Chloro-1-(cyclopropylmethyl)-1H-benzotriazol-5-yl]cyclohex-3-en-1-yl}methanol]

More lines, now with the values behind:

SMILES | EC50 [nM]
Clc1c(C2=CCCCC2)ccc2c1nnn2CC1CC1 [Example 4, 4-chloro-5-cyclohex-1-en-1-yl-1-(cyclopropylmethyl)-1H-benzotriazole] | 947
CN1C(=O)CN(CC2CC=C(c3ccc4c(nnn4CC4CC4)c3C(F)(F)F)CC2)C1=O (centres unmarked) [Example 8, 1-({4-[1-(Cyclopropylmethyl)-4-(trifluoromethyl)-1H-benzotriazol-5-yl]cyclohex-3-en-1-yl}methyl)-3-methylimidazolidine-2,4-dione] | 15
CN1C(=O)CN(CC2CC=C(c3ccc4c(nnn4CC4CC4)c3Cl)CC2)C1=O (centres unmarked) [Example 3, 1-({4-[4-Chloro-1-(cyclopropylmethyl)-1H-benzotriazol-5-yl]cyclohex-3-en-1-yl}methyl)-3-methylimidazolidine-2,4-dione] | 17
OCC1CC=C(c2ccc3c(nnn3CC3CC3)c2Br)CC1 (centres unmarked) [Example 10, {4-[4-Bromo-1-(cyclopropylmethyl)-1H-benzotriazol-5-yl]cyclohex-3-en-1-yl}methanol] | 52
CN1C(=O)CN(CC2CC=C(c3ccc4c(nnn4CC4CC4)c3Br)CC2)C1=O (centres unmarked) [Example 11, 1-({4-[4-Bromo-1-(cyclopropylmethyl)-1H-benzotriazol-5-yl]cyclohex-3-en-1-yl}methyl)-3-methylimidazolidine-2,4-dione] | 9.2
CN1CC(c2ccc3c(nnn3CC(C)(C)C)c2Br)=CCC1CO (centres unmarked) [Example 9, {5-[4-Bromo-1-(2,2-dimethylpropyl)-1H-benzotriazol-5-yl]-1-methyl-1,2,3,6-tetrahydropyridin-2-yl}methanol] | 1560
N#CC1CC=C(c2ccc3c(nnn3CC3CC3)c2Cl)CC1 (centres unmarked) [Example 6, 4-[4-chloro-1-(cyclopropylmethyl)-1H-benzotriazol-5-yl]cyclohex-3-ene-1-carbonitrile] | 701
